Measured values reported in US20240189307A1, “METHODS OF STABILIZING THE NEURONAL PROTEOME AGAINST COLLAPSE AND PROTECTING VASCULAR CELLS” (ALBERT EINSTEIN COLLEGE OF MEDICINE, priority 2021, published 2024).

System: NIH3T3 cells stably expressing the KFERQ-PS-Dendra reporter
Experiment: CMA activity in cells with KFERQ-PS-Dendra reporter (fluorescent puncta per cell)
Type: cell-based, mouse
Conditions: increasing concentrations; 12 h, 16 h or 24 h treatment
Protocol: FIG. 10. Characterization of the brain permeable chemical activator of CMA and effect in a mouse model of Frontotemporal dementia-related proteotoxicity. (A) Chemical structure of AR7 and CA77.1. (B) Quantification of the effect of adding increasing concentrations of AR7 and CA77.1 to NIH3T3 cells stably expressing the KFERQ-PS-Dendra reporter. CMA activity was quantified after 16 h treatment as the average of fluorescent puncta per cell. (n>800 cells per condition). (C) Autophagic flux in NIH3T3 cells incubated at 37° C. for 16 h with 20 µM AR7 or CA77.1 or without additions (none). Where indicated lysosomal protease inhibitors (PI) were added to the cells 6 h before lysis. Left: representative immunoblot. […] Right: quantification of LC3-II flux as the difference in LC3-II levels in cells treated with PI relative to untreated. […] (D) Quantification of the effect of adding increasing concentrations of AR7 and CA77.1 to NIH3T3 cells stably expressing the KFERQ-PS-Dendra reporter. CMA activity was quantified after 12 h or 24 h treatment as the average of fluorescent puncta per cell. […] Representative immunoblot of 4-5 mice per genotype and treatment (L) and densitometric quantification of AT8 as monomer [Kruskal-Wallis statistic=20.48, p<0.0001] […] (O, P) Quantification of the number of Iba1-positive microglial cells per mm^2 in the hippocampus [Kruskal-Wallis statistic=10.55, p=0.0051] […]

Structure (SMILES): CC(=O)Nc1ccc(-c2cnc3cc(Cl)ccc3n2)cc1 [CA77.1]
- CMA activity in vitro: activates CMA in vitro in dose- and time-dependent manner
